Data taken from publication PMC3523469 (Investigational New Drugs, 2012).
Like-named read-outs stand apart in the source and are kept apart here.

Assay type: in vivo, Japanese patients

COc1cc2ncnc(Nc3ccc(F)c(Cl)c3)c2cc1NC(=O)/C=C/CN1CCCCC1 [dacomitinib, Dacomitinib]
Dry skin, number of patients with treatment-related AE (30 mg QD (n = 3), G3): 0
ECG QT prolonged, number of patients with treatment-related AE (30 mg QD (n = 3), G3): 0
Edema, number of patients with treatment-related AE (30 mg QD (n = 3), G3): 0
Fatigue, number of patients with treatment-related AE (30 mg QD (n = 3), G3): 0
Hematuria, number of patients with treatment-related AE (30 mg QD (n = 3), G3): 0
Hypertrichosis, number of patients with treatment-related AE (30 mg QD (n = 3), G3): 0
Leukopenia, number of patients with treatment-related AE (30 mg QD (n = 3), G3): 0
Nausea, number of patients with treatment-related AE (30 mg QD (n = 3), G3): 0
Palmar–plantar erythrodysesthesia, number of patients with treatment-related AE (30 mg QD (n = 3), G3): 0
Paronychia, number of patients with treatment-related AE (30 mg QD (n = 3), G3): 0
Proteinuria, number of patients with treatment-related AE (30 mg QD (n = 3), G3): 0
Rash, number of patients with treatment-related AE (30 mg QD (n = 3), G3): 0
Skin fissures, number of patients with treatment-related AE (30 mg QD (n = 3), G3): 0
Stomatitis, number of patients with treatment-related AE (30 mg QD (n = 3), G3): 0
Weight decreased, number of patients with treatment-related AE (30 mg QD (n = 3), G3): 0
Alanine aminotransferase increased, number of patients with treatment-related AE (45 mg QD (n = 7), All): 2
Aspartate aminotransferase increased, number of patients with treatment-related AE (45 mg QD (n = 7), All): 2
Blood bilirubin increased, number of patients with treatment-related AE (45 mg QD (n = 7), All): 2
Cheilitis, number of patients with treatment-related AE (45 mg QD (n = 7), All): 2
Conjunctivitis, number of patients with treatment-related AE (45 mg QD (n = 7), All): 3
Decreased appetite, number of patients with treatment-related AE (45 mg QD (n = 7), All): 2
Diarrhea, number of patients with treatment-related AE (45 mg QD (n = 7), All): 7
Dry skin, number of patients with treatment-related AE (45 mg QD (n = 7), All): 5
ECG QT prolonged, number of patients with treatment-related AE (45 mg QD (n = 7), All): 0
Edema, number of patients with treatment-related AE (45 mg QD (n = 7), All): 2
Fatigue, number of patients with treatment-related AE (45 mg QD (n = 7), All): 5
Hematuria, number of patients with treatment-related AE (45 mg QD (n = 7), All): 2
Hypertrichosis, number of patients with treatment-related AE (45 mg QD (n = 7), All): 2
Leukopenia, number of patients with treatment-related AE (45 mg QD (n = 7), All): 3
Nausea, number of patients with treatment-related AE (45 mg QD (n = 7), All): 2
Palmar–plantar erythrodysesthesia, number of patients with treatment-related AE (45 mg QD (n = 7), All): 2
Paronychia, number of patients with treatment-related AE (45 mg QD (n = 7), All): 6
Proteinuria, number of patients with treatment-related AE (45 mg QD (n = 7), All): 3
Rash, number of patients with treatment-related AE (45 mg QD (n = 7), All): 7
Skin fissures, number of patients with treatment-related AE (45 mg QD (n = 7), All): 2
Stomatitis, number of patients with treatment-related AE (45 mg QD (n = 7), All): 5
Weight decreased, number of patients with treatment-related AE (45 mg QD (n = 7), All): 2
Alanine aminotransferase increased, number of patients with treatment-related AE (45 mg QD (n = 7), G1): 0
Aspartate aminotransferase increased, number of patients with treatment-related AE (45 mg QD (n = 7), G1): 0
Blood bilirubin increased, number of patients with treatment-related AE (45 mg QD (n = 7), G1): 0
Cheilitis, number of patients with treatment-related AE (45 mg QD (n = 7), G1): 2
Conjunctivitis, number of patients with treatment-related AE (45 mg QD (n = 7), G1): 3
Decreased appetite, number of patients with treatment-related AE (45 mg QD (n = 7), G1): 0
Diarrhea, number of patients with treatment-related AE (45 mg QD (n = 7), G1): 4
Dry skin, number of patients with treatment-related AE (45 mg QD (n = 7), G1): 5
ECG QT prolonged, number of patients with treatment-related AE (45 mg QD (n = 7), G1): 0
Edema, number of patients with treatment-related AE (45 mg QD (n = 7), G1): 1
Fatigue, number of patients with treatment-related AE (45 mg QD (n = 7), G1): 1
Hematuria, number of patients with treatment-related AE (45 mg QD (n = 7), G1): 2
Hypertrichosis, number of patients with treatment-related AE (45 mg QD (n = 7), G1): 2
Leukopenia, number of patients with treatment-related AE (45 mg QD (n = 7), G1): 1
Nausea, number of patients with treatment-related AE (45 mg QD (n = 7), G1): 1
Palmar–plantar erythrodysesthesia, number of patients with treatment-related AE (45 mg QD (n = 7), G1): 0
Paronychia, number of patients with treatment-related AE (45 mg QD (n = 7), G1): 1
Proteinuria, number of patients with treatment-related AE (45 mg QD (n = 7), G1): 2
Rash, number of patients with treatment-related AE (45 mg QD (n = 7), G1): 1
Skin fissures, number of patients with treatment-related AE (45 mg QD (n = 7), G1): 1
Stomatitis, number of patients with treatment-related AE (45 mg QD (n = 7), G1): 4
Weight decreased, number of patients with treatment-related AE (45 mg QD (n = 7), G1): 0
Alanine aminotransferase increased, number of patients with treatment-related AE (45 mg QD (n = 7), G2): 1
Aspartate aminotransferase increased, number of patients with treatment-related AE (45 mg QD (n = 7), G2): 1
Blood bilirubin increased, number of patients with treatment-related AE (45 mg QD (n = 7), G2): 1
Cheilitis, number of patients with treatment-related AE (45 mg QD (n = 7), G2): 0
Conjunctivitis, number of patients with treatment-related AE (45 mg QD (n = 7), G2): 0
Decreased appetite, number of patients with treatment-related AE (45 mg QD (n = 7), G2): 1
Diarrhea, number of patients with treatment-related AE (45 mg QD (n = 7), G2): 3
Dry skin, number of patients with treatment-related AE (45 mg QD (n = 7), G2): 0
ECG QT prolonged, number of patients with treatment-related AE (45 mg QD (n = 7), G2): 0
Edema, number of patients with treatment-related AE (45 mg QD (n = 7), G2): 1
Fatigue, number of patients with treatment-related AE (45 mg QD (n = 7), G2): 4
Hematuria, number of patients with treatment-related AE (45 mg QD (n = 7), G2): 0
Hypertrichosis, number of patients with treatment-related AE (45 mg QD (n = 7), G2): 0
Leukopenia, number of patients with treatment-related AE (45 mg QD (n = 7), G2): 2
Nausea, number of patients with treatment-related AE (45 mg QD (n = 7), G2): 1
Palmar–plantar erythrodysesthesia, number of patients with treatment-related AE (45 mg QD (n = 7), G2): 2
Paronychia, number of patients with treatment-related AE (45 mg QD (n = 7), G2): 5
Proteinuria, number of patients with treatment-related AE (45 mg QD (n = 7), G2): 1
Rash, number of patients with treatment-related AE (45 mg QD (n = 7), G2): 4
Skin fissures, number of patients with treatment-related AE (45 mg QD (n = 7), G2): 1
Stomatitis, number of patients with treatment-related AE (45 mg QD (n = 7), G2): 1
Weight decreased, number of patients with treatment-related AE (45 mg QD (n = 7), G2): 2
